Experiment: pKa of the conjugate acid of the enolate anion (acid/base titration or UV absorption method)
Format: physicochemical
Conditions: mixed solvent of THF/water=3/2
Text: The conjugate acid of the enolate anion in the formula (1) has a pKa value of 3.0-6.0. If the pKa value is less than 3.0, ultrahigh contrast images cannot be obtained. On the other hand, if it exceeds 6.0, stability before light exposure and development is degraded. The pKa value defined herein is a value obtained by the acid/base titration method or the UV absorption method in a mixed solvent of THF/water=3/2.

| SMILES | pKa |
| --- | --- |
| O=C1/C(=C/O)N=C(c2cc(C(F)(F)F)cc(C(F)(F)F)c2)N1c1ccc(Cl)cc1 [Compound A-6] | 3.8 |
| CCCCCCCCCCCCc1cc(CCCCCCCCCCCC)cc(N2N=C/C(=C/O)C2=O)c1 [Compound R-1] | ≤ 2.9 |
| CCCCCCCCCCCCNc1ccc(N2C(=O)/C(=C\O)N=C2C(F)(F)F)cc1 [Compound A-18] | 3.1 |
| CCCCCCCCCCCCCCCc1cccc(CCCN2C(=O)/C(=C\O)c3ccccc32)c1 [Compound R-2] | 6.3 |

From US6746835B2, “Thermally processed image recording material” (Fuji Photo Film Co., Ltd., priority 2001, dated 2004)
